Among the data in patent publication US20230241256A1, “NON-INTUITIVE COMBINATION OF DRUG DELIVERY CARRIERS OF THE SAME DRUG FOR SYNERGISTIC GROWTH DELAY OF SOLID TUMORS” (The Johns Hopkins University, priority 2020, published 2023) are colony survival response values, retold here.

The test system of experiment [1] is Trastuzumab-sensitive BT474 breast cancer cells. Description: Clonogenic (colony) survival, BT474. Type of experiment: cell-based, human. Particulars: 6 hour incubation at 37° C.; pH 7.4 or 6.0; monolayers. The method, then: (§1) Cold conditions of liposomes and the antibody are indicated at zero radioactivity concentration. Error bars correspond to standard deviations of repeated measurements (4-6 samples per radioactivity concentration);
(§2) After incubation for 6 hours of cell monolayers with varying concentrations of radioactivity, the cells were washed and were plated in dishes to grow until formation of colonies, as described in detail in Prasad et al., 2021.

Experiment [2] relates to Trastuzumab-resistant BT474-R breast cancer cells. The experiment is described as follows: Clonogenic (colony) survival, BT474-R. Particulars: 6 hour incubation at 37° C.; pH 7.4 or 6.0; monolayers. Type of experiment: cell-based, human. The method, then: as §1, §2

As for `O=C([O-])CN1CCN(CC(=O)[O-])CCN(CC(=O)[O-])CCN(CC(=O)[O-])CC1.[225Ac+3]` [free [^225Ac]Ac-DOTA], the colony survival response entry in experiment [1] and in experiment [2] was “same sensitivity” each time.
